# Read-outs that look alike come from different tables or passages of the source.
# What was measured:
# [1] = test system: PH5CH8 liver cells; assay: High-throughput hepatic de novo lipogenesis (DNL) assay, high content imaging of steatotic phenotype; format: cell-based, human; conditions: for IC50: Homo sapiens
# [2] = test system: HEK293 cells stably transduced with the human OCT3 transporter; assay: Cellular oxygen consumption rate (OCR), MitoXpress Xtra; format: cell-based; conditions: HEK293 cells expressing human OCT3; compared to DMSO control; 2 hours
# Experimental: Oxygen consumption rate experiments were performed by ZenBio, Inc (RTP, NC). HEK293 cells stably transduced with the human OCT3 transporter were plated in black-walled microclear plates (Greiner-BioOne) at 60,000 cells per well in growth medium. Cells were incubated overnight to allow attachment before growth medium was removed and replaced with 150μL of assay medium containing compound dilutions. Four concentrations of each compound were prepared and transferred to the empty wells. Control wells contained assay medium only or assay medium containing […] (FCCP) at 1μM. Ten μL of MitoXpress Xtra reagent was added to each test well and 100μL of pre-warmed mineral oil was overlaid in each well to create a seal. The plates were immediately read on a FLUOstar Omega (BMG) using dual read Time Resolved Fluorescence (TR-F) for 2 hours, with measurements taken every 2 minutes using 340nm and 650nm as excitation and emission wavelengths respectively. For lifetime analysis, two measurements per well were taken: 1) delay of 30μs, with a window of 30μs; and 2) delay of 70μs with a window of 30μs. Background TRF values were subtracted from all readings. A ratiometric analysis was performed to determine changes in the Lifetime fluorescence signal: Lifetime (μs)[T] = (D2-D1)/ln(W1/W2), where D is delay; W is fluorescence window value at each time point. Lifetime slopes were calculated using each Lifetime measurement over time. Data are presented as mean ± standard error (SE). The differences between the control (DMSO) and compound treated wells were analyzed using the Student’s t-test. A value of p≤0.05 was considered statistically significant. […]
# [3] = Metabolic stability in human liver microsomes; format: in vitro ADME
# Experimental: (§1) Three experiments were performed with 1) 0.5mg/ml microsomes and 1mM NADPH, 2) 0.5mg/ml microsomes without NADPH and 3) 0.5mg/ml heat inactivated microsomes without NADPH in 100mM phosphate buffer, containing 5mM magnesium chloride. […] At the indicated time points, 50μl samples were removed and stopped by addition of 4 volumes of cold acetonitrile with internal standards, 100nM alprazolam, 200nM labetalol and 2μM ketoprofen. The samples were centrifuged at 3,220 g for 40 minutes and aliquots of 100μl were subsequently diluted with 100μl of ultra-pure water and analyzed by LC/MS/MS using a (Shimadzu corporation) LC system coupled to a Shimadzu Triple Quad 5500 mass spectrometer with an ESI interface. The LC system used a Waters XSelect HSS T3 C18, 2.5μm, 2.1 x 50 mm column eluted with one of two methods using mobile phases A (water, 0.1% formic acid) and B (acetonitrile, 0.1% formic acid). […] The Shimadzu Triple Quad 5500 MS was operated with the following parameters: Ion source: Turbo spray; Ionization mode: ESI; Scan type: MRM; Collision gas: 10 L/min; Curtain gas: 30 L/min; Nebulize gas: 50 L/min; Auxiliary gas: 50 L/min; Temperature: 500°C; Ionspray voltage: +5500 V (positive MRM). All experiments were performed in duplicate. Data were analyzed using Microsoft excel, and peak areas were determined from extracted ion chromatograms.
# [4] = Metabolic stability in mouse liver microsomes; format: in vitro ADME
# Experimental: as §1
# [5] = test system: Salmonella typhimurium TA100; conditions: for Mean Revertant Colony Counts TA-100 SP9+: with S9; for Mean Revertant Colony Counts TA-100 S9-: without S9
# [6] = test system: Salmonella typhimurium TA98; assay: Ames assay, strain TA98; conditions: for Mean Revertant Colony Counts TA98 SP9+: with S9; for Mean Revertant Colony Counts TA98 S9-: without S9
structure (smiles),measurement,setting,value
"CC(C)(C)c1ccc(O)c(C(=O)Nc2ccc(C(=O)O)cc2C(F)(F)F)c1 [Compound 500873, 4-[(5-tert-butyl-2-hydroxy)amido]-3-(trifluoromethyl)benzoic acid]",IC50,"[1]; PH5CH8 liver cells, 10-point dose response between 1μM and 1.9nM, read-out: IC50 (uM), inhibition of steatotic phenotype in DNL assay",0.005 µM
same,IC50,"[1]; S1 Table, SAR for N-Substituted Phenylbenzamides, read-out: IC50",0.0046 µM
same,Active/Inactive,"[1]; S1 Table, SAR for N-Substituted Phenylbenzamides",Active
same,change in respiration / oxygen consumption rate (OCR),[2],no change in respiration
same,"Remaining Percentage of 60 min (%), Human, Tested Sample",[3]; 0.5mg/ml microsomes and 1mM NADPH,64.2%
same,"Remaining Percentage of 60 min (%), Human, Negative Control",[3]; 0.5mg/ml microsomes without NADPH,97.7%
same,"Remaining Percentage of 60 min (%), Human, Heat-inactivated Control",[3]; heat inactivated microsomes without NADPH,91.1%
same,"Remaining Percentage of 60 min (%), Mouse, Tested Sample","[4]; 0.5mg/ml microsomes and 1mM NADPH, 60 min",107.5%
same,"Remaining Percentage of 60 min (%), Mouse, Negative Control","[4]; 0.5mg/ml microsomes without NADPH, 60 min",106.4%
same,stability in MLM,[4]; 60 minutes,stable
same,"Remaining Percentage of 60 min (%), Mouse, Heat-inactivated Control","[4]; heat inactivated microsomes without NADPH, 60 min",105.5%
same,Mean Revertant Colony Counts TA-100 SP9+,[5]; 1.5 ug/Well,22.3
same,Mean Revertant Colony Counts TA-100 S9-,[5]; 1.5 ug/Well,33.0
same,Mean Revertant Colony Counts TA-100 SP9+,[5]; 4 ug/Well,18.3
same,Mean Revertant Colony Counts TA-100 S9-,[5]; 4 ug/Well,31.7
same,Mean Revertant Colony Counts TA-100 SP9+,[5]; 10 ug/Well,20.7
same,Mean Revertant Colony Counts TA-100 S9-,[5]; 10 ug/Well,28.3
same,Mean Revertant Colony Counts TA-100 SP9+,[5]; 25 ug/Well,16.7
same,Mean Revertant Colony Counts TA-100 S9-,[5]; 25 ug/Well,25.0
same,Mean Revertant Colony Counts TA-100 SP9+,[5]; 64 ug/Well,18.3
same,Mean Revertant Colony Counts TA-100 S9-,[5]; 64 ug/Well,28.7
same,Mean Revertant Colony Counts TA-100 SP9+,[5]; 160 ug/Well,22.7
same,Mean Revertant Colony Counts TA-100 S9-,[5]; 160 ug/Well,25.0
same,Mean Revertant Colony Counts TA-100 SP9+,[5]; 400 ug/Well,17.7
same,Mean Revertant Colony Counts TA-100 S9-,[5]; 400 ug/Well,21.0
same,"fold increase in the mean number of revertant colonies, TA100","[5]; any concentration tested, vs negative control",< 2 fold
same,Mean Revertant Colony Counts TA98 SP9+,[6]; 1.5 ug/Well,5.7
same,Mean Revertant Colony Counts TA98 S9-,[6]; 1.5 ug/Well,5.0
same,Mean Revertant Colony Counts TA98 SP9+,[6]; 4 ug/Well,6.0
same,Mean Revertant Colony Counts TA98 S9-,[6]; 4 ug/Well,9.0
same,Mean Revertant Colony Counts TA98 SP9+,[6]; 10 ug/Well,6.3
same,Mean Revertant Colony Counts TA98 S9-,[6]; 10 ug/Well,4.0
same,Mean Revertant Colony Counts TA98 SP9+,[6]; 25 ug/Well,9.3
same,Mean Revertant Colony Counts TA98 S9-,[6]; 25 ug/Well,7.7
same,Mean Revertant Colony Counts TA98 SP9+,[6]; 64 ug/Well,8.3
same,Mean Revertant Colony Counts TA98 S9-,[6]; 64 ug/Well,11.7
same,Mean Revertant Colony Counts TA98 SP9+,[6]; 160 ug/Well,10.3
same,Mean Revertant Colony Counts TA98 S9-,[6]; 160 ug/Well,10.0
same,Mean Revertant Colony Counts TA98 SP9+,[6]; 400 ug/Well,14.0
same,Mean Revertant Colony Counts TA98 S9-,[6]; 400 ug/Well,11.7
same,Mean Revertant Colony Counts TA98 SP9+,[6]; 1000 ug/Well,16.3
same,Mean Revertant Colony Counts TA98 S9-,[6]; 1000 ug/Well,14.0
same,"fold increase in revertant colonies, TA98",[6]; 1000 μg/well in the absence of S9 mix,≥ 2 fold

# From article PMC6201879, “N-substituted phenylbenzamides of the niclosamide chemotype attenuate obesity related changes in high fat diet fed mice” (PLoS ONE, 2018)
